Several values for one entry are separate records, joined by “and”; a condition that tells them apart may be missing. Equal values may be shown once.
Key:
[1] = tested on: DNA; conditions: cited from earlier work
[2] = range over 12 experimental settings; ME 100, 200 or 500 μM; calculated from published data, molar units; cited from earlier work
[3] = range over five models (male and female Sprague–Dawley and Fischer 344 rats, pooled human); cited from earlier work
[4] = tested on: SULT1A1; design: method as in PMID 22337896; conditions: cited from earlier work
[5] = design: method as in PMID 22445790; conditions: cited from earlier work
[6] = cited from earlier work; for urinary metabolite of ME, share of the dose / urinary metabolite of ME in urine treated with glucuronidase/sulfatase, share of the dose: rat urine 24 h after oral ME 200 mg/kg
[7] = tested on: human topoisomerase I; design: method as in PMID 26542539; conditions: cited from earlier work
[8] = design: method as in PMID 22610610, PMID 22445790; conditions: calculated from published data; cited from earlier work
[9] = Controlled exposure study in humans: urinary excretion of E-3′-MEMA after a meal with 100 g basil pesto (1.7 mg ME), isotope-dilution LC–MS/MS; type: in vivo, human
Protocol: Based on the findings of the pilot investigation, a more comprehensive (“main”) exposure study was performed. The study was conducted according to the guidelines of the Declaration of Helsinki and was approved by the ethics committee of the University of Potsdam under application number 4/2019. It was carried out at the Institute of Nutritional Science (University of Potsdam), where 12 healthy volunteers (six men and six women) with conventional nutrition habits were recruited. All participants gave written informed consent. The mean age of the test group was 31.6 ± 4.6 years (range: 25–42 years), and the mean body weight was 76.4 ± 10.0 kg (range: 61–94 kg). To guarantee that urinary excretion of MEMA was solely attributed to the consumption of the basil pesto served, all volunteers were asked to avoid ME-containing food 2 days before and after the consumption of the study meal. Therefore, they received an information sheet specifying potential ME sources. After overnight fasting, the participants consumed a meal comprising 100 g of self-made pesto containing 30 g of basil (equal to 1.7 mg of ME; recipe see Table S2) and 200 g of pasta. No further restrictions were exerted. To ensure proper urine sampling, the volunteers were encouraged to drink beverages as they preferred. Urine was collected quantitatively in capped polyethylene containers prior to the controlled exposure and during the following intervals: 0–1, 1–2, 2–3, 3–4, 4–5, 5–6, 6–8, 8–10, 10–12, 12–24, 24–36, and 36–48 h. After the volumes were measured, the urine was aliquoted in two 15 mL reaction tubes per time interval and stored at −20 °C until analysis.
“System 2” was configured as follows: an HPLC 1100 (Agilent Technologies) was connected to a QTrap6500 triple quadrupole-hybrid ion trap mass spectrometer (Sciex, Darmstadt, Germany) equipped with an electrospray ionization source operating in negative mode. The chromatographic separation of the analytes was performed by ion pair chromatography on a Nucleoshell RP 18plus column (2.0 × 150 mm, 2.7 μm; Macherey-Nagel). The eluents were water containing 10 mM tributylamine and 10 mM acetic acid (eluent A) and acetonitrile (eluent B). The flow rate of the gradient (0 → 1 min: 2% eluent B; 1 → 8 min: 2 → 15% eluent B; 8 → 17.5 min: 15 → 35% eluent B; 17.5 → 18 min: 35 → 100% eluent B; 18 → 20 min: 100% eluent B; 20 → 20.1 min: 100 → 2% eluent B; 20.1 → 23 min: 2% eluent B) was 0.5 mL/min. […] The MRM mode was employed for quantitative analysis with the declustering potential and the entrance potential at −30 and −10 V, respectively. For the quantifier mass transitions of E-3′-MEMA (m/z 338.1 → 209.1) and d6-E-3′-MEMA (m/z 344.1 → 215.1), a collision energy of −20 V and a cell exit potential of −5 V were used. […]

[10] = tested on: primary cultures of rat hepatocytes; conditions: cited from earlier work
[11] = rat, in vivo
Protocol: The metabolism of ME and its isomer, MIE, was also studied in rats in vivo.[27] Urine collected over a period of 24 h after oral administration of ME (200 mg/kg) contained a total of ten metabolites (each accounting for ≥1% of the dose); together, they represented 95% of the dose. Among the microsomal metabolites described in the preceding sections, only 6-hydroxy-ME was detected in native urine (2% of the dose). In human liver microsomes, it contributed 0–3.4% to the metabolism of ME, less than that in liver microsomes from other species [calculated from data published by Cartus et al.[11] and Al-Subeihi et al.[26]]. For this reason, and as 6-hydroxy-ME is not involved in bioactivation, it is not suited as a biomarker. Eugenol and chavibetol were found in urine treated with glucuronidase/sulfatase at levels of 7 and 4% of the dose, respectively. Obviously, these metabolites are not suited as biomarkers for exposure to ME, as they may also be found after exposure to eugenol and chavibetol. […] Although in this study, 95% of the dose of ME was recovered as metabolites in urine, metabolites were additionally detected in bile. […] Glutathione (GSH) conjugates and other metabolites of the mercapturic acid pathways were not detected in that study; however, the method used (extraction of the acidified urine or bile with ether followed by gas chromatography) was not suitable for their detection.

[12] = human, in vivo; cited from earlier work
[13] = tested on: human CYPs; conditions: cited from earlier work
[14] = tested on: DNA; conditions: cited from earlier work; remark: listed apart in the source
[15] = n = 1; cited from earlier work

C=CC(O)c1ccc(OC)c(OC)c1 (stereo not drawn) [1′-hydroxy-ME]
DNA adduct levels in mice carrying a human SULT1A1–1A2 transgene compared to wild-type mice [1]: nine times higher | potency in induction of hepatomas and formation of DNA adducts in mouse liver, compared with ME [1]: more potent than ME | contribution of the metabolite to the metabolism of ME (sum of all metabolites) [2]: 36.4–69.4% | contribution of the metabolite to ME metabolism calculated from Vmax values [3]: 36.2–50.1% | efficiency of human SULT1A1 in activation to a mutagen relative to its mouse orthologue [4]: about 3 times | catalytic efficiency of glucuronidation, factor lower in human than in male rat liver microsomes [5]: 125 times

COc1ccc(CC(O)C(=O)O)cc1OC (stereo not drawn) [2-hydroxy-3-(3,4-dimethoxyphenyl)propionic acid]
urinary metabolite of ME, share of the dose [6]: 20 % of the dose

COc1ccc(CC(O)CO)cc1OC (stereo not drawn) [2′,3′-dihydroxy-2′,3′-dihydro-ME]
contribution of the metabolite to ME metabolism calculated from Vmax values [3]: 21.8–44.0%

Cc1ccc(CC(=O)O)cc1C [3,4-Dimethylphenylacetic acid]
urinary metabolite of ME, share of the dose [6]: 3 % of the dose

COc1ccc(C(=O)O)cc1OC [3,4-dimethoxybenzoic acid]
urinary metabolite of ME, share of the dose [6]: 2 % of the dose

COc1ccc(C(=O)NCC(=O)O)cc1OC [3,4-dimethoxybenzoylglycine]
urinary metabolite of ME, share of the dose [6]: 30 % of the dose

COc1ccc(C=CC(=O)NCC(=O)O)cc1OC [3,4-dimethoxycinnamoylglycine]
urinary metabolite of ME, share of the dose [6]: 24 % of the dose

COc1ccc(C(O)CC(=O)O)cc1OC (stereo not drawn) [3-hydroxy-3-(3,4-dimethoxyphenyl)propionic acid]
urinary metabolite of ME, share of the dose [6]: 2 % of the dose

COc1ccc(C=CCO)cc1OC [3′-hydroxy-MIE, 3′-hydroxymethylisoeugenol]
contribution of the metabolite to the metabolism of ME (sum of all metabolites) [2]: 10.4–42.4% | contribution of the metabolite to ME metabolism calculated from Vmax values [3]: 10.3–12.9% | share of the dose excreted as urinary metabolites that appeared to be formed via 3′-hydroxy-MIE ([6]; rats, ME 200 mg/kg): 62 % of the dose | share of the urinary metabolites that appeared to be formed via 3′-hydroxy-MIE ([6]; rats, ME 200 mg/kg): 65%

COc1ccc(/C=C/C=O)cc1OC [3′-oxo-MIE]
contribution of the metabolite to the metabolism of ME (sum of all metabolites) [2]: 0–6.8% | effect on human topoisomerase I activity in vitro [7]: inhibit

C=CCc1cc(OC)c(OC)cc1O [6-hydroxy-ME]
contribution of 6-hydroxy-ME to the metabolism of ME in human liver microsomes [8]: 0–3.4% | contribution of the metabolite to the metabolism of ME (sum of all metabolites) [2]: 0–27.4% | contribution of the metabolite to ME metabolism calculated from Vmax values [3]: 3.9–4.7% | urinary metabolite of ME, share of the dose [6]: 2 % of the dose

COc1ccc(C=CCSC[C@H](NC(C)=O)C(=O)O)cc1OC [E-3′-MEMA, N-acetyl-S-[3′-(3,4-dimethoxyphenyl)allyl]-L-cysteine]
total amount of E-3′-MEMA excreted, range among 12 participants ([9]; 1.7 mg ME in basil pesto): 3–274 ng/person | interindividual variability of E-3′-MEMA excretion, factor between highest and lowest values ([9]; 12 participants): ~80 | E-3′-MEMA ratio of ME intake ([9]; individual participant, urine 0–48 h after 100 g basil pesto containing 1.7 mg ME): 33 ppm and 20 ppm and 85 ppm and 14 ppm and 1 ppm and 2 ppm and 4 ppm and 16 ppm and 6 ppm and 11 ppm | E-3′-MEMA total urinary excretion ([9]; individual participant, urine 0–48 h after 100 g basil pesto containing 1.7 mg ME, sum of all samples with concentration > LOD): 105 ng and 63 ng and 274 ng and 44 ng and 3 ng and 6 ng and 12 ng and 51 ng and 18 ng and 36 ng and 20 ng and 52 ng

C=CCc1ccc(O)c(OC)c1 [Eugenol, eugenol]
urinary metabolite of ME in urine treated with glucuronidase/sulfatase, share of the dose [6]: 7 % of the dose

C=CCc1ccc(OC)c(OC)c1 [ME, Methyleugenol]
reduction of DNA adduct formation by ME in mouse liver by genetic knockout of SULT1A1 ([1]; mouse, in vivo): 99% | induction of UDS by ME in the presence of the SULT1 inhibitor pentachlorophenol [10]: fully suppressed | share of the dose of ME converted via 1′-sulfooxy-ME to 3′-hydroxy-MIE (suggested) [11]: 14.3–41.7% | half-life of elimination of ME from serum [12]: about 90 min | time of peak serum levels of ME after the meal [12]: 5 min | contribution of 1′-hydroxylation to hepatic ME metabolism at low substrate concentration [13]: 38.4% | contribution of 2′,3′-epoxidation to hepatic ME metabolism at low substrate concentration [13]: 58.8%

COc1ccc(C=CCNc2nc3c(ncn3[C@H]3C[C@H](O)[C@@H](CO)O3)c(=O)[nH]2)cc1OC [N^2-(methylisoeugenol-3′-yl)-2′-deoxyguanosine]
human lung samples with DNA adducts present [14]: 10 out of 10 | human liver samples with DNA adducts present ([14]; surgical human liver samples): 150 out of 151

C=CCc1ccc(OC)c(O)c1 [chavibetol]
urinary metabolite of ME in urine treated with glucuronidase/sulfatase, share of the dose [6]: 4 % of the dose

COc1ccc(C=CCSC[C@H](NC(C)=O)C(=O)O)cc1 [mercapturic acid of estragole, N-acetyl-S-[3′-(4-methoxyphenyl)allyl]-L-Cys]
urinary excretion of the mercapturic acid as share of intake [15]: 13.2 ppm

Reference: paper PMC10664145, “Urinary Excretion of Mercapturic Acids of the Rodent Carcinogen Methyleugenol after a Single Meal of Basil Pesto: A Controlled Exposure Study in Humans” (Chemical Research in Toxicology, 2023)
